PMC6337126, “Thiophene Derivatives as Anticancer Agents and Their Delivery to Tumor Cells Using Albumin Nanoparticles” (Molecules, 2019)
In brackets after ≈: the same amount, converted by molar mass. Several values for one entry are separate records, joined by “and”; a condition that tells them apart may be missing. Equal values may be shown once. Read-outs that look alike come from different tables or passages of the source.

Columns and labels:
[1] = tested on: HepG2; experiment: MTT screening assay of TPs; type: cell-based
Protocol: (§1) HepG2 and SMMC-7721 cell lines were cultured and grown in complete DMEM containing 10% FBS and 1% streptomycin and penicillin in 5% CO2 at 37 °C. TPs were fabricated using the method as described previously. The cytotoxicity of TPs in HepG2 and SMMC-7721 cell in vitro was evaluated by MTT assay. Firstly, cells with a density of 8 × 10^4 cells per wells were placed and cultured in 96-well plates and incubated 24 h at 37 °C. Then, 100 μL of TPs DMEM solution (30 μg/mL) was added into each well. After incubated 24 h, 10 μL of MTT solution (5.0 mg/mL) was added and incubated 4 h. Finally, the medium was removed, 100 μL of DMSO was added and OD values were tested using microplate reader (Synergy4, multi-mode microplate reader, BioTek, Winooski, VT, USA) at 490 nm when the formazan precipitate was completely dissolved. It is worth noting that wells containing normal medium without TPs were regarded as controls. In addition, wells which add the medium with paclitaxel were regarded as a positive control.

[2] = tested on: SMMC-7721; experiment: MTT screening assay of TPs; type: cell-based
Protocol: as §1

[3] = Solubility of TP 5 in solvents by HPLC; type: physicochemical
Protocol: (§2) In order to investigate the solubility and stability of TP 5, a certain amount of TP 5 was dissolved in several solvents (deionized water, PBS buffered solution pH 7.4, ethanol, ethyl acetate, and dichloromethane) and make it saturate. The solubility was measured by HPLC. In addition, for the stability of TP 5, 200.0 μg/mL of TP 5 was placed in different temperature (25.0, 40.0 and 60.0) and the concentration was detected and compared with practical concentration.

[4] = Stability of TP 5 at different temperatures by HPLC; type: physicochemical; conditions: for Detected Concentration: calculated concentration 200.0 μg/mL, single replicates
Protocol: as §2

[5] = In vitro drug release by dialysis method; type: physicochemical; conditions: over 120 h, PBS containing 20.0% ethanol, 37 °C
Protocol: The detailed process was as follows: first, TP 5 and TP 5-NPs were all dissolved or dispersed in 1.0 mL PBS (pH 7.4), respectively. Then, they were placed in a dialysis bag (the molecule weight cutoff was 12.0 kD). After that, they were placed in 50.0 mL release medium PBS containing 20.0% v/v ethanol and maintained at 37 °C with continuous stirring at 150 rpm. Sink conditions were maintained. At predetermined time intervals, 1.0 mL release medium was withdrawn and replaced with 1.0 mL 37 °C fresh release medium. Finally, the released capacity of TP 5 was detected by HPLC.

[6] = tested on: HepG2; experiment: Cytotoxicity of TP 5-NPs in vitro (MTT); type: cell-based
Protocol: (§3) The cytotoxicity of TP 5-NPs in two cell lines in vitro was assessed. Briefly, cells with a density of 8 × 10^4 cells per wells were placed and cultured in 96-well plates. After incubated 24 h at 37 °C, 100 μL of medium containing different concentrations of TP 5-NPs or TP 5 (10.0, 20.0, 30.0, 40.0 and 50.0 μg/mL) was added to each well and cultured another 24, 48 or 72 h at 37 °C (wells containing the normal medium without formulation were regarded as controls). After that, 10.0 μL of MTT (5.0 mg/mL) was added into each well and incubated for 4.0 h. Finally, the medium was removed and 100.0 μL of DMSO was added. OD values were tested by microplate reader at 490 nm when the formazan precipitate was completely dissolved.

[7] = tested on: SMMC-7721; experiment: Cytotoxicity of TP 5-NPs in vitro (MTT); type: cell-based
Protocol: as §3

[8] = tested on: HepG2; experiment: Mitochondrial transmembrane potential assay (JC-1); type: cell-based; conditions: HepG2, 30.0 μg/mL, 12 h
Protocol: (§4) In general, cell apoptosis is often accompanied by the transformation of mitochondrial transmembrane potential (ΔΨm). […] In order to verify whether TP 5-NPs can induce cancer cell apoptosis, ΔΨm was measured. Firstly, HepG2 and SMMC-7721 cell with a density of 2 × 10^5 cells per wells in 1.0 mL of medium all were seeded in a 12-well plate and incubated for 24 h. After that, 30.0 μg/mL of TP 5-NPs or TP 5 was added and cultured for another 12 h, in which wells containing normal medium without drugs were regarded as controls. Cells were washed using PBS for three times, incubated for 10 min in 10.0 μg/mL of JC-1 dye in the dark. The level of mitochondrial depolarization was observed by inverted fluorescent microscope and quantitatively analyzed by imaging software Image J [26].

[9] = tested on: SMMC-7721; experiment: Mitochondrial transmembrane potential assay (JC-1); type: cell-based; conditions: SMMC-7721, 30.0 μg/mL, 12 h
Protocol: as §4

[10] = tested on: HepG2; experiment: ROS assay (DCFH-DA); type: cell-based; conditions: HepG2, 30.0 μg/mL, 12 h
Protocol: (§5) The experimental procedure was similar to the part 4.2.8. Similarly, HepG2 and SMMC-7721 cell were seeded in a 12-well plate and incubated for 24 h. 30.0 μg/mL of TP 5-NPs or TP 5 was added and cultured for another 12 h. After that, 10 μM 2′, 7′-dichlorodihydrofluorescein diacetate (DCFH-DA, Sigma-Aldrich, Saint Louis, MO, USA) was added and incubated for 10.0 min in the dark. Inversed fluorescent microscope was applied to observe fluorescence images.

[11] = tested on: SMMC-7721; experiment: ROS assay (DCFH-DA); type: cell-based; conditions: SMMC-7721, 30.0 μg/mL, 12 h
Protocol: as §5

SMILES: Cc1cc2c(s1)C1=NC(=O)OC1(c1ccc(Cl)c(Cl)c1)CC2 (centres unmarked) [TP 5]
- antitumor activity compared with other TPs and paclitaxel ([1]; HepG2, 30.0 μg/mL, 24 h): higher activity than other TPs including paclitaxel
- antitumor activity compared with other TPs and paclitaxel ([2]; SMMC-7721, 30.0 μg/mL, 24 h): higher activity than other TPs including paclitaxel
- solubility ([3]; PBS containing 20.0% v/v ethanol, PBS pH 7.4 containing 20.0% v/v ethanol, read-out: Solubility in release (acceptor) medium): 88.2 µg/mL (≈ 250 µM)
- solubility ([3]; aqueous buffer, thermodynamic from solid, PBS buffered solution (pH 7.4), 25 °C, read-out: Solubility): 27.6 µg/mL (≈ 78.5 µM)
- solubility ([3]; deionized water, 25 °C, water, thermodynamic from solid, read-out: Solubility): 26.4 µg/mL (≈ 74.8 µM)
- solubility ([3]; dichloromethane, 25 °C, organic solvent or mixture, thermodynamic from solid, read-out: Solubility): > 13000 µg/mL
- solubility ([3]; ethanol, 25 °C, organic solvent or mixture, thermodynamic from solid, read-out: Solubility): 2480 µg/mL (≈ 7040 µM)
- solubility ([3]; ethyl acetate, 25 °C, organic solvent or mixture, thermodynamic from solid, read-out: Solubility): > 6800 µg/mL
- Detected Concentration ([4]; 25.0 °C): 201.18 µg/mL and 200.53 µg/mL and 199.88 µg/mL
- Detected Concentration ([4]; 40.0 °C): 202.66 µg/mL and 200.05 µg/mL and 202.01 µg/mL
- Detected Concentration ([4]; 60.0 °C): 202.28 µg/mL and 202.93 µg/mL and 201.19 µg/mL
- thermal stability of structure ([4]; temperature increased to 60 °C, HPLC): stable
- drug released [5]: ~ 20%
- cytotoxicity ([6]; HepG2, 10.0-50.0 μg/mL, 24, 48 and 72 h): dose and time-dependent cytotoxicity
- concentration above which cells were completely killed ([6]; HepG2, MTT, 24, 48 and 72 h): exceeds 40.0 μg/mL
- cytotoxicity ([7]; SMMC-7721, 10.0-50.0 μg/mL, 24, 48 and 72 h): dose and time-dependent cytotoxicity
- concentration above which cells were completely killed ([7]; SMMC-7721, MTT, 24, 48 and 72 h): exceeds 40.0 μg/mL
- JC-1 polymer/monomer (red/green) fluorescence ratio [8]: lower than those of controls
- JC-1 polymer/monomer (red/green) fluorescence ratio [9]: lower than those of controls
- levels of ROS [10]: higher than those of control cells
- levels of ROS [11]: higher than those of control cells

SMILES: CC(=O)O[C@H]1C(=O)[C@@]2(C)[C@H]([C@H](OC(=O)c3ccccc3)[C@]3(O)C[C@H](OC(=O)[C@H](O)[C@@H](NC(=O)c4ccccc4)c4ccccc4)C(C)=C1C3(C)C)[C@]1(OC(C)=O)CO[C@@H]1C[C@@H]2O [paclitaxel, reference compound]
- IC50 ([1]; Homo sapiens, HepG2, 24 h): 35.9 µg/mL
- IC50 ([2]; Homo sapiens, SMMC-7721, 24 h): 35.3 µg/mL
